Source: patent US5254727A, “Acyclic tricarboxylic acid compounds” (Merck & Co., Inc., priority 1992, dated 1993)

What was measured:
[1] = biological target: T1, squalene synthetase from human HEPG2 cells (Homo sapiens, UniProt P37268); test: Squalene synthetase assay using HepG2 cell enzyme; assay type: biochemical; details: 3 μM 3H-farnesyl pyrophosphate, 30° C., 20 min
T1 construct: The resulting pellet from the 34,000 rpm centrifugation, containing the squalene synthetase, was resuspended in 5 mL of enzyme suspension buffer; endogenous in cells; host or cells: HepG2 cells (ATCC HB 8065), pellet of the 34,000 rpm centrifugation (microsomal)
T1 sequence (P37268 1-417): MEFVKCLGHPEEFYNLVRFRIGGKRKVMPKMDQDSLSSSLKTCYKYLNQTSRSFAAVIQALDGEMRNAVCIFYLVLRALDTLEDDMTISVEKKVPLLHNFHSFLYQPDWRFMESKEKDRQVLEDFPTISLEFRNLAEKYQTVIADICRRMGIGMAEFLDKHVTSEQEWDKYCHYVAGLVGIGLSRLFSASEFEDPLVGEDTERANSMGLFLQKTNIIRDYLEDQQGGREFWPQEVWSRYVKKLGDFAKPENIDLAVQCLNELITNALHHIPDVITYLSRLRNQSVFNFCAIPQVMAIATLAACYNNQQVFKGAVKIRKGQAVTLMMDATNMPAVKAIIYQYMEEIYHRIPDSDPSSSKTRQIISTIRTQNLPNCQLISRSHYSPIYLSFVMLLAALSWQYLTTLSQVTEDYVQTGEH
Protocol: A. SQUALENE SYNTHETASE ASSAY USING HEPG2 CELL ENZYME
1. Preparation of Human HepG2 Cell Enzyme
Source: HEPG2 CELL LINE (Liver, hepatoblastoma, Human) ATCC No. HB 8065
Cell Growth and Maintenance: Culture Medium: Minimum essential medium (MEM) with non-essential amino acids, sodium pyruvate, and 10% fetal bovine serum. The medium was changed twice weekly. A confluent monolayer was acheived in 1 week. The growth medium was prepared as listed below.
Subculture Procedure: The medium was removed and washed with PBS (Phosphate-Buffered Saline 15.6 mM, pH 7.0). Fresh trypsin (0.25%)-EDTA (0.02%) with Hank's Balanced Salt solution was added and the flask was allowed to stand for a minute before the trypsin solution was removed. The flask was incubated at 37° C. until cells detached. Fresh medium was added and the cells were dispersed and dispensed into new flasks. Subcultivation ratio: 1:6.
Preparation of Delipidated Serum: Fetal calf serum (100 ml) and CAB-O-Sil (2 grams) were stirred overnight at 4° C. and centrifuged at 16,000 rpm for 5 hrs. […]
Harvest: The medium was removed and the cells were washed with PBS. […] Cells were counted (2.5×10^9 yield from 18 flasks (75 cm^2)), and resuspended in 10 mL of 50 mM HEPES (N-[2-Hydroxyethyl]piperazine-N'-[2-ethane-sulfonic acid]) containing 5 mM MgCl2, 2 mM MnCl2, 10 mM DTT (dithiothreitol), pH 7.5 (enzyme suspension buffer). […]

[2] = biological target: T2, squalene synthetase, rat liver microsomes (Rattus norvegicus, UniProt Q02769); test: Squalene synthetase assay using rat liver enzyme; assay type: biochemical; details: rat liver microsomal enzyme, [4-14C]farnesyl pyrophosphate, 30° C., 20 min
T2 construct: from tissue; host or cells: liver microsomes of male Charles River CD rats fed 0.1% lovastatin
T2 sequence (Q02769 1-416): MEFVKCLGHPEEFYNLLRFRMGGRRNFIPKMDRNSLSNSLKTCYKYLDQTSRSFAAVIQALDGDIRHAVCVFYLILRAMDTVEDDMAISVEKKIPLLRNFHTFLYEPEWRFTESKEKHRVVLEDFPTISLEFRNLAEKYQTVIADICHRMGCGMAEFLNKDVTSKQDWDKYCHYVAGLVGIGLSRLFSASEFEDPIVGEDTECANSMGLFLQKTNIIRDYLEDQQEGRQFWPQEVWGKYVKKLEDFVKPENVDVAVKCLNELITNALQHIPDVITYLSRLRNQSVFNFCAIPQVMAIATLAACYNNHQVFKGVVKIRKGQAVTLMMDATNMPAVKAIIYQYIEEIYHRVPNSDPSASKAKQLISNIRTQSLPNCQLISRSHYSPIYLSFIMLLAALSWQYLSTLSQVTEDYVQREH
Protocol: B. SQUALENE SYNTHETASE ASSAY USING RAT LIVER ENZYME
Preparation of Rat Liver Microsomes: Male, Charles River CD rats (120 to 150 g) were fed a diet containing 0.1% lovastatin for 4 days. The livers from these rats were homogenized in 5 volumes (ml/g) of ice cold 50 mM HEPES (4-(2-hydroxyethyl)-1-piperazine-ethanesulfonic acid), 5 mM EDTA(ethylenediaminetetra-acetic acid) pH 7.5 with a Potter-Elvehjem type tissue grinder. The homogenate was centrifuged twice at 20,000×g for 15 minutes at 4° C., discarding the pellet each time. The supernatant was then centrifuged at 100,000×g for 1 hour at 4° C. The resulting microsomal pellet was resuspended in a volume of the above homogenizing buffer equal to one-fifth the volume of the original homogenate. This microsomal preparation has a protein concentration of about 7 mg/ml. The microsomal suspensions were stored in aliquots at -70° C. Squalene synthetase activity in these aliquots is stable for at least several months.
Partial Purification of Prenyl Transferase: Prenyl transferase was purified to use in the enzymatic synthesis of radiolabelled farnesyl pyrophosphate [FPP]. Prenyl transferase was assayed by the method of Rilling (Methods in Enzymology 110, 125-129 (1985)) and a unit of activity is defined as the amount of enzyme that will produce 1 μmole of farnesyl pyrophosphate per minute at 30° C. in the standard assay. […]

IC50 [1]: ~145 nM
IC50 [2]: 767 nM
Compound: CC(C/C=C/c1ccccc1)CC(C)CCCCCC(C(=O)O)C(O)(CC(=O)O)C(=O)O (centres unmarked) [Compound IA]
